# Molecular target: Free fatty acid receptor 1 (Homo sapiens, UniProt O14842)
# Assay: GPR40 FDSS Assay
# Settings: 37 °C
# Method: Human embryonic kidney (HEK293) cells expressing human GPR40 receptors were grown in Dulbecco modified Eagles medium (DMEM)/F12 media supplemented with 10% fetal FBS and glutamine. Changes in ligand-induced calcium-dependent intracellular fluorescence were measured with a fluorometric plate reader (FDSS; Hamamatsu Corp., Bridgewater, NJ).
# Free fatty acid receptor 1, sequence (O14842 whole entry): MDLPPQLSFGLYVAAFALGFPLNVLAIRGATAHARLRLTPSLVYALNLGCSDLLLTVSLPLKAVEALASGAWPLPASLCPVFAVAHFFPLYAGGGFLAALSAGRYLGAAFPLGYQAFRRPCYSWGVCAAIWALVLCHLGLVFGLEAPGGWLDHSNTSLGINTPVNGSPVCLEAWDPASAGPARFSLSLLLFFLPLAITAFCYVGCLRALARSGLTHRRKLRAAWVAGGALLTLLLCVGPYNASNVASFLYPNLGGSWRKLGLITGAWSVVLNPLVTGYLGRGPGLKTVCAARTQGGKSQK
row,SMILES,EC50 [nM]
1,CCCCOc1ccc(C(CC(=O)O)c2cccs2)cc1 (stereo not given) [3-(4-butoxyphenyl)-3-(thiophen-2-yl)propanoic acid],1290
2,CCCCOc1ccc(C(CC(=O)O)c2ccc(C(F)(F)F)cc2)cc1 (stereo not given) [3-(4-butoxyphenyl)-3-[4-(trifluoromethyl)phenyl]propanoic acid],> 10000
3,CCCCOc1ccc(C(CC(=O)O)c2ccccc2)cc1 (stereo not given) [3-(4-butoxyphenyl)-3-phenylpropanoic acid],1200
4,CCCCCOc1cccc(C(CC(=O)O)c2ccccc2)c1 (stereo not given) [3-[3-(pentyloxy)phenyl]-3-phenylpropanoic acid],> 10000
5,CCC(C)COc1ccc(C(CC(=O)O)c2ccccc2)cc1 (stereo not given) [3-[4-(2-methylbutoxy)phenyl]-3-phenylpropanoic acid],300
6,CC(C)CCOc1ccc(C(CC(=O)O)c2ccccc2)cc1 (stereo not given) [3-[4-(3-methylbutoxy)phenyl]-3-phenylpropanoic acid],1860
7,CCCCCOc1ccc(C(CC(=O)O)c2ccccc2)cc1 (stereo not given) [3-[4-(pentyloxy)phenyl]-3-phenylpropanoic acid],2970
8,CCCOc1ccc(C(CC(=O)O)c2ccccc2)cc1 (stereo not given) [3-phenyl-3-(4-propoxyphenyl)propanoic acid],4800
9,C/C=C/COc1ccc(C(CC(=O)O)c2ccccc2)cc1 (stereo not given) [3-{4-[(2E)-but-2-en-1-yloxy]phenyl}-3-phenylpropanoic acid],2710
10,CCCCOc1ccc(C(CCCC(=O)O)c2ccccc2)cc1 (stereo not given) [5-(4-butoxyphenyl)-5-phenylpentanoic acid],> 10000

# Source: BindingDB's records for doi:10.1021/jm070130j (Johnson & Johnson Pharmaceutical, 2007)
